The results in this text go back to patent publication US20080004282A1, “Compositions and methods for modulating gated ion channels” (PainCeptor Pharma Corporation, priority 2006, published 2008).

Molecules are shown by their SMILES. Like-named read-outs stand apart in the source and are kept apart here.

The experiment has as its target T1, ASIC1a (Homo sapiens, UniProt P78348).
T1 sequence (P78348 1-528): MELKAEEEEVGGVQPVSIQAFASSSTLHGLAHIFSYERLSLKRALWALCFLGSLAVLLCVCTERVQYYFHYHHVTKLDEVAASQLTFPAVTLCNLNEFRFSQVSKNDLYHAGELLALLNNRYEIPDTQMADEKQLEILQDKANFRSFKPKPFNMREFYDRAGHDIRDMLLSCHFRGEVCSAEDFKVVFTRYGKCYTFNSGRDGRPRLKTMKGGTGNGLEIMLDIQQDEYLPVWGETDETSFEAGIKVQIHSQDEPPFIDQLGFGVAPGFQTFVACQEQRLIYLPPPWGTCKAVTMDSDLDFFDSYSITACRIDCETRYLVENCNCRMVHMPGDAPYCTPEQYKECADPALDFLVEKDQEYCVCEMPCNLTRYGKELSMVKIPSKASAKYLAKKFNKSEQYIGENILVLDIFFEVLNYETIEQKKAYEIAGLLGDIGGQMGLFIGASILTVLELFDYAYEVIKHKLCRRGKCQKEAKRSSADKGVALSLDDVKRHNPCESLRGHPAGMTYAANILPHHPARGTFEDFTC
Description: Whole cell patch clamp in HEK293 cells transfected with hASIC1a. Details: expressed in transfected cells; host or cells: Xenopus laevis oocytes, nuclear microinjection of an expression vector such as pCDNA3. The class given is cell-based. From the text: Screening and Bioanalysis of ASIC Antagonists in Heterologous Expression Systems
This example describes another in vitro assessment of the activity of the compounds of the present invention.
Another example of an in vitro assessment method consists of using mammalian heterologous expression systems, which are known to the skilled in the art, and include a variety of mammalian cell lines such as COS, HEK, e.g., HEK293 and/or CHO, cells. Cell lines are transfected with gated ion channel(s) and used to perform electrophysiology as follows:
All experiments are performed at room temperature (20-25° C.) in voltage clamp using conventional whole cell patch clamp methods (Neher, E., et al. (1978) Pfluegers Arch 375:219-228). […]
Coverslips with the cells are transferred to a 15 μl experimental chamber mounted on the stage of an inverted microscope (IMT-2, Olympus) supplied with Nomarski optics. […] The cells are held at a holding voltage of −60 mV and at the start of each experiment the current is continuously measured for 45 s to ensure a stable baseline. […] Current amplitudes are measured at the peak of the responses, and effect of the compounds is calculated as the amplitude at compound equilibrium divided by the amplitude of the current evoked by the pulse just before the compound is included. […]
A general note: In patch-clamp work, channel activity is measured electrically.

By IC50 is commonly meant the midpoint of a concentration-inhibition curve.

Take `CCN1CCc2c(-c3ccccc3)cc(C#N)c(N)c2C1` [Compound 12, 8-Amino-2-ethyl-5-phenyl-1,2,3,4-tetrahydro-isoquinoline-7-carbonitrile]: the concentration for half-maximal inhibition (IC50) (HEK293 cells, whole cell patch clamp, six point dose-response, read-out: IC50, inhibition of acid-induced hASIC1a activity) amounted to 4 µM.

`CCN1CCc2c(-c3cc(Cl)ccc3OC)cc(C#N)c(N)c2C1` [Compound 44] had an IC50 of 5.1 µM.
